Columns and labels:
[1] = Liver microsomal stability, mouse; assay type: in vitro ADME; conditions: mouse liver microsomes
Experimental: Liver microsome stability studies (human, mouse, and rat) were performed at Sumika Chemical Analysis Service (Osaka, Japan) by following an established procedure. A mixture of 1 μM of substrate, 0.5 mg protein/mL of microsomes, and […] β-NADPH was incubated for 30 or 60 min and % remaining substrate was quantitatively measured by LC-MS/MS.

[2] = target: interaction between HBx and DNA binding protein 1 (UniProt P03165+Q16531); experiment: HBx - DNA binding protein 1 interaction; conditions: data not shown
[3] = test system: phospho-SAMHD1; experiment: Western blotting of phospho-SAMHD1 in HepG2-NTCP-C4 cells; assay type: cell-based, human; conditions: 30 μM, 1 day
Experimental: HepG2-NTCP-C4 cells were treated with 30 μM iCDM-17 and iCDM-34 for 1 day. The cells were lyzed with 20 mM TrisHCl pH 7.5 containing 100 mM NaCl, 10 mM EDTA, 1% TritonX-100, 1% Sodium deoxycholate, PhosSTOP (Roche), Complete EDTA free. The lysates were sonicated 30 s and mixed for 1 h with rotation at 4 °C. The lysates were centrifuged at 15,000 rpm for 10 min at 4 °C. The supernatants were analyzed by Western blotting using anti-phospho-SAMHD1 (Thr592) (Cell signaling technology, 89930, 1/1000), anti-SAMHD1 (Cell signaling technology, 49158, 1/1000), and β−actin (Santa Cruz, 1/1000).

[4] = test system: CDK1/2; experiment: CDK1/2 mRNA qPCR in HepG2-NTCP-C4 cells; assay type: cell-based, human; conditions: 30 μM
Experimental: HepG2-NTCP-C4 cells were plated on a 96-well plate in DMEM/F12 and GlutaMAX Supplement (Thermo Fisher Scientific) containing 10% fetal bovine serum, 10 mM HEPES, 5 μg/ml insulin, […] hydrocortisone, 200 U/ml penicillin, and 200 μg/ml streptomycin. After 1 day, the cells were treated with 30 μM iCDM-17 and iCDM-34 for 3, 8, 24 h. Total RNA was purified form the cells using Agencourt RNA advance (Beckman Courter). cDNA was synthesized using PrimeScript RT master mix (Takara Bio). CDK1, CDK2, β-actin mRNA amount was quantified by qPCR.
mRNA expression levels were measured by qPCR using specific primers or sets of specific primers and probe. RNA was reverse transcribed using PrimeScript RT Master Mix (Takara Bio, Shiga, Japan) to synthesize complementary DNA (cDNA). OAS1,glyceraldehyde 3-phosphate dehydrogenase (GAPDH), β-actin mRNA expression levels were measured using specific primers and TB Green Premix Ex Taq II (Takara Bio). AhR (Hs00169233_m), CDK1 (Hs00938777_m), CDK2 (Hs01548894_m) mRNA expression levels were measured using specific probe and primer sets (Thermo Fisher Scientific, Waltham, MA, USA) and Probe qPCR mix (Takara Bio) in a CFX96 Touch Real-Time PCR Detection System (Bio-Rad Laboratories, Hercules, CA, USA). […] Expression levels were determined using the 2^–ΔΔCt method and were normalized to endogenous β-actin mRNA expression levels.

[5] = test system: promoter of hypoxia inducible factor (HIF); parameters: method as in PMID 34492592; conditions: cited from earlier work

interaction between HBx and DNA binding protein 1, sequence (Q16531 whole entry): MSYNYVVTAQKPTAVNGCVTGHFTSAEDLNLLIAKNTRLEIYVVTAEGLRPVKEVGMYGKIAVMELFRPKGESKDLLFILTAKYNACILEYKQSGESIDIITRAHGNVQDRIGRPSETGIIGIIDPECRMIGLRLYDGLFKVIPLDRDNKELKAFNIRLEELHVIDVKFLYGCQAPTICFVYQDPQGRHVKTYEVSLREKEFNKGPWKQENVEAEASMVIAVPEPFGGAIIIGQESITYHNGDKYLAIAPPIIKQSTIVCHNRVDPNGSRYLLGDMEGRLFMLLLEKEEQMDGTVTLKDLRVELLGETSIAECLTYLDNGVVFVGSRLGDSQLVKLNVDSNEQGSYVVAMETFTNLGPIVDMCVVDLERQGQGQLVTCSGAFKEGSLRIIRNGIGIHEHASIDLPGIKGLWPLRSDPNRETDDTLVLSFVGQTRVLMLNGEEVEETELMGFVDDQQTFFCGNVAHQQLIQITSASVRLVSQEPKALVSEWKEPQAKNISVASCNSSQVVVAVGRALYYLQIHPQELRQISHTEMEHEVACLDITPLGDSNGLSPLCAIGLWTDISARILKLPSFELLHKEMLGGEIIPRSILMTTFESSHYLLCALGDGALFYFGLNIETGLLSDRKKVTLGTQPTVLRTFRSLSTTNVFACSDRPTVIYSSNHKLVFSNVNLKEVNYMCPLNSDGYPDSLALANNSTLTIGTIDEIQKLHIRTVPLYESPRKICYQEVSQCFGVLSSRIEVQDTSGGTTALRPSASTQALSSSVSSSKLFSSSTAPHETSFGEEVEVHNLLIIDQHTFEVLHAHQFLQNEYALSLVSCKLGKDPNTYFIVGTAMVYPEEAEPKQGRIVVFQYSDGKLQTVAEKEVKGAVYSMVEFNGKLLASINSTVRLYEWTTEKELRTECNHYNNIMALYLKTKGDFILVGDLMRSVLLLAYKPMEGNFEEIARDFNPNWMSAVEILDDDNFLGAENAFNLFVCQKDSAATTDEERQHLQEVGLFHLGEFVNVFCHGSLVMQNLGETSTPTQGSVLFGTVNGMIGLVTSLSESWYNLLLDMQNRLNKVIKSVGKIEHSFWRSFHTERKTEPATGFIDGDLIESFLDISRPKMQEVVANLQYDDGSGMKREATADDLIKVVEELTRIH
interaction between HBx and DNA binding protein 1, sequence (P03165 whole entry): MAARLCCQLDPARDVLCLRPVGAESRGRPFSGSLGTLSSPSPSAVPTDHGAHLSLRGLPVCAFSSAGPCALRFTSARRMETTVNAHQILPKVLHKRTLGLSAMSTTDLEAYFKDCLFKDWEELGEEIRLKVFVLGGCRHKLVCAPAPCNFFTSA

**Q.** Which results are given for O=C(Nc1ccc(Br)cc1)c1ccn(Cn2cc([N+](=O)[O-])cn2)n1 [iCDM-34]?
**A.** half-life at 1 μM [1]: 33.1 min; remaining at 0.5 h, 1 μM ([1]; 1 μM substrate, 0.5 mg protein/mL, 30 min): 41.2 ± 0.4%; remaining at 1 h, 1 μM ([1]; 1 μM substrate, 0.5 mg protein/mL, 60 min): 21 ± 0.8%; inhibition of interaction between HBx and DNA binding protein 1 [2]: did not inhibit; phospho-SAMHD1 levels [3]: lower than pre-treatment levels; CDK2 mRNA expression levels ([4]; after 3 and 8 h): significantly suppressed; CDK1 mRNA levels ([4]; after 8 and 24 h): significant suppression; suppression of HIF promoter [5]: suppress
